Literature values, collected in the CATMoS acute toxicity set (Mansouri et al. 2021).
Several values for one entry are separate records, joined by “and”; a condition that tells them apart may be missing. Equal entries are not always repeated.

Test: rat acute oral toxicity
Conditions: in vivo

SMILES | LD50
C=CCC(CC=C)(C(=O)OCCN(CC)CC)c1ccccc1 | 1500 mg/kg
CC(=O)OC1c2cccc(O)c2C(=O)c2c(O)cccc21 | 347 mg/kg
NS(=O)(=O)c1ccc2nc(C(F)(F)F)[nH]c2c1 | 21 mg/kg
CCCCC(CC)COC(CBr)c1cccc(C2CCCCC2)c1 (stereo not drawn) | 250 mg/kg
C=Cc1ccc(OCC2CO2)cc1 (stereo not drawn) | 1000 mg/kg
O=C1CCCCCC=CCCCCCCCCO1 | 339 mg/kg
CCCCCCCCOC(CBr)c1ccc(C2CCCC2)cc1 (stereo not drawn) | 250 mg/kg
CCOc1ccc(N2CC(C(=O)N3CCNCC3)CC2=O)cc1 (stereo not drawn) | 550 mg/kg
NC(=S)Nc1cc(Cl)ccc1Cl | 300 mg/kg
CCOP(=S)(OCC)SCc1ccc([N+](=O)[O-])cc1 | 100 mg/kg
COc1nc(C)nc(NC(=O)NS(=O)(=O)c2ccccc2Cl)n1 | 9370 mg/kg
COP(=O)(OC)OC(=C(Cl)Br)c1ccc(Cl)cc1Cl | 107 mg/kg
CCOP(=S)(OC(C)C)Sc1nc(C)cc(C)n1 (stereo not drawn) | 68 mg/kg
CCCCCCCCCCOC(=O)Cc1ccc(N(CCCl)CCCl)cc1 | 150 mg/kg
FC(F)(F)c1nc2ccc(I)cc2[nH]1 | 96 mg/kg
COCCOCCOCCOC(C)=O | 11000 mg/kg
Cc1cc(Cl)ccc1O | 1190 mg/kg
CC1CN(CCO)CC1C (stereo not drawn) | 1230 mg/kg
CN1CCCC(n2nc(Cc3ccc(Cl)cc3)c3ccccc3c2=O)CC1 (stereo not drawn) | 310 mg/kg and 580 mg/kg
O=[N+]([O-])c1cc(C(F)(F)F)cc([N+](=O)[O-])c1Cl | 930 mg/kg
CC(C)(C)C1CCC(O)CC1 (stereo not drawn) | 4200 mg/kg
CC(=O)C1OC1(C)C (stereo not drawn) | 1610 mg/kg
CC(C)C1C=C2CC[C@H]3[C@](C)(CO)CCC[C@]3(C)[C@H]2CC1 (stereo partly drawn) | 70000 mg/kg
CN=C1C=CC(=C(c2ccc(N(C)C)cc2)c2ccc(N(C)C)cc2)C=C1 | 413 mg/kg

SMILES | LD50
O=C1CSc2ncccc2N1 | 1050 mg/kg
CSC(C)(C)C=NO | 742 mg/kg
O=P(O)(O)CN(CC(O)CN(CP(=O)(O)O)CP(=O)(O)O)CP(=O)(O)O | 4300 mg/kg
CC(=O)Nc1cccc(N=Nc2ccc(N(C)C)cc2)c1 | 5910 mg/kg
CCC(O)(c1ccccc1)c1cccc(C(F)(F)F)c1 (stereo not drawn) | 2240 mg/kg
CO[C@@]1(NC(=O)CSCC#N)C(=O)N2C(C(=O)O)=C(CSc3nnnn3C)CS[C@@H]21 | 3200 mg/kg
O=S1(=O)CCC(NNc2ccccc2)C1 (stereo not drawn) | 2380 mg/kg
CCC(C)OC(CBr)c1ccccc1 (stereo not drawn) | 250 mg/kg
CCCCCCCc1ccc(O)cc1O | 1300 mg/kg
CN(Cc1ccccc1)N=O | 18 mg/kg
CN1CCC(=C2c3ccccc3CC(=O)c3sccc32)CC1 | 360 mg/kg
O=C(O)C(F)(F)C(F)(F)F | 1770 mg/kg
c1ccc(C(c2ccccc2)(c2ccccc2)N2CCOCC2)cc1 | 83 mg/kg
CCC1(C)C(=O)N(CC2CO2)C(=O)N1CC1CO1 (stereo not drawn) | 250 mg/kg
CC(C)OP(=S)(OC(C)C)SCSC(C)C | 5 mg/kg
N#Cc1ccc(Cl)c([N+](=O)[O-])c1 | 2050 mg/kg
O=[N+]([O-])O[C@H]1CO[C@H]2[C@@H]1OC[C@H]2O[N+](=O)[O-] | 747 mg/kg
CN(C)C=Nc1c(I)cc(I)c(CCC(=O)O)c1I | 2500 mg/kg and 1030 mg/kg
COc1ccccc1OCC(O)CO (stereo not drawn) | 1510 mg/kg
Cc1ccc2[nH]c(C(F)(F)F)nc2c1Br | 64 mg/kg
O=C/C=C/O | 824 mg/kg
Cc1ccc2ncccc2c1 | 800 mg/kg
CC(=O)c1ccc(C(O)C(CO)NC(=O)C(Cl)Cl)cc1 (stereo not drawn) | 1100 mg/kg
CCCc1ccc(OC)cc1 | 4400 mg/kg

SMILES | LD50
Cc1ccc(C)[nH]1 | 59 mg/kg
CC(=O)OC1CCCCC1 | 6730 mg/kg
CCCCC(CC)COC(C[n+]1ccccc1)c1ccccc1 (stereo not drawn) | 250 mg/kg
NC1=NCC(c2ccccc2)O1 (stereo not drawn) | 25 mg/kg
O=C1c2ccccc2C(=O)C1c1ccc(C(F)(F)F)cc1 | 198 mg/kg
CCOP(=S)(OC(C)C)ON1C(=O)c2ccccc2C1=O (stereo not drawn) | 250 mg/kg
Nc1ccc(Oc2ccc(S(=O)(=O)c3ccc(Oc4ccc(N)cc4)cc3)cc2)cc1 | 220 mg/kg
Nc1ccc(F)c([N+](=O)[O-])c1 | 1100 mg/kg
CC(=O)OC(OC(C)=O)C(Cl)CCl (stereo not drawn) | 320 mg/kg
O=C1CCc2cc(C=CCN3CCN(c4cccc(Cl)c4)CC3)ccc2N1 | 500 mg/kg
CC(c1ccc(Cl)cc1)c1ccc(Cl)cc1 | 1000 mg/kg
NC(=O)Cc1cccc2ccccc12 | 1690 mg/kg
CC(O)CN(CC(C)O)CC(C)O (stereo not drawn) | 4730 mg/kg
CCOC(=O)c1ccccc1O | 1320 mg/kg
C=CCN(C)N=O | 340 mg/kg
CCCCc1ccn[nH]1 | 509 mg/kg
N/C(CNc1ccc(Cl)c(Cl)c1)=N/O | 245 mg/kg
CCCCCCC(=O)OCCOCCOCCOCCOC(=O)CCCCCC | 25000 mg/kg
CC1(C)S[C@@H]2[C@H](NC(=O)Cc3ccccc3)C(=O)N2[C@H]1C(=O)O | 8900 mg/kg and 8000 mg/kg and 6920 mg/kg
O=C(Nc1nc(C(F)(F)F)c(Cl)s1)c1cc(C(F)(F)F)cc(C(F)(F)F)c1 | 69 mg/kg
COc1cc(C(O)C(C)NC(C)COc2ccccc2)ccc1O (stereo not drawn) | 1280 mg/kg
C#CCBr | 53 mg/kg
C[C@@H]1C[C@H]2[C@@H]3C[C@H](F)C4=CC(=O)C=C[C@]4(C)[C@H]3[C@@H](O)C[C@]2(C)[C@H]1C(=O)CO | 245 mg/kg
CN(SSN(C)C(=O)ON=C1CSCCS1)C(=O)ON=C1CSCCS1 | 160 mg/kg

SMILES | LD50
Oc1ccc(Cc2ccc(O)cc2)cc1 | 4950 mg/kg
Cc1cc(S(=O)(=O)O)cc(C)c1O | 2650 mg/kg
c1cc(N(CC2CO2)CC2CO2)ccc1OCC1CO1 (stereo not drawn) | 1040 mg/kg
O=C(O)CCSCCC(=O)O | 3000 mg/kg
O=c1[nH]c2ccccc2n1CCCN1CCN(C(c2ccccc2)c2ccccc2)CC1 | 1410 mg/kg
Nc1ccc(Cl)c([N+](=O)[O-])c1 | 400 mg/kg
FC(F)(F)CO[C@@H]1CC[C@@](Cn2cncn2)(c2ccc(Cl)cc2Cl)O1 | 450 mg/kg
Nc1ccc2c3c([nH]c2c1)CCCC3 | 290 mg/kg
O=CC=CC1CO1 (stereo not drawn) | 62 mg/kg
O=C1C(Cl)=C(NC(=O)C(Cl)Cl)C(=O)c2ccccc21 | 11700 mg/kg
CCCN1C(=O)C2C3C=C(C(O)(c4ccccc4)c4ccccn4)C(C3=C(c3ccccc3)c3ccccn3)C2C1=O (stereo not drawn) | 34.5 mg/kg
COc1cc([N+](=O)[O-])ccc1N | 997 mg/kg
c1ccc(NC[Si]23OCCN(CCO2)CCO3)cc1 | 0.328 mg/kg
Nc1ccc(C=Cc2ccc([N+](=O)[O-])cc2S(=O)(=O)O)c(S(=O)(=O)O)c1 | 14200 mg/kg
O=[N+]([O-])c1ccc(Oc2ccc(C(F)(F)F)cc2Cl)cc1 | 1000 mg/kg
CCCCCCCCP(=O)(O)O | 1890 mg/kg
CC(C)(C)[C@H](O)/C(=C\c1ccc(Cl)cc1)n1cncn1 | 430 mg/kg
Cc1ncc(CNC(=O)N(CCCl)N=O)c(N)n1 | 113 mg/kg
Fc1c(Br)c(Cl)c2nc(C(F)(F)F)[nH]c2c1Br | 6.28 mg/kg
CC(C)[C@]12CC(=O)[C@H](C)[C@H]1C2 | 500 mg/kg
CON=C(C(=O)N[C@@H]1C(=O)N2C(C(=O)O)=C(COC(N)=O)CS[C@H]12)c1ccco1 | 10000 mg/kg
O=C1CN(N=Cc2ccc(-c3ccc([N+](=O)[O-])cc3)o2)C(=O)N1 | 7430 mg/kg
C[N+](C)([O-])c1ccc(N=Nc2ccccc2)cc1 | 2200 mg/kg
C=C(C)C(=O)OCC(C)O (stereo not drawn) | 11200 mg/kg

SMILES | LD50
COCCOc1cnc(NS(=O)(=O)c2ccccc2)nc1 | 3100 mg/kg
CCC1CCCC(CC)C1N (stereo not drawn) | 157 mg/kg
Fc1c(Cl)ccc2[nH]c(C(F)(F)F)nc12 | 5.72 mg/kg
Nc1ccc(C(F)(F)F)cc1 | 128 mg/kg
COP(=S)(OC)SC(CC(=O)OC(C)C)C(=O)OC(C)C (stereo not drawn) | 4000 mg/kg
COP(N)(=S)Oc1ccc(C(C)(C)C)cc1Cl (stereo not drawn) | 820 mg/kg
CC(C)Cc1ccc(C(C)C(=O)OCc2ccccn2)cc1 (stereo not drawn) | 1440 mg/kg
C=CCI | 10 mg/kg
COC(=O)/C=C(/CC(=O)OC)OP(=O)(OC)OC | 31 mg/kg
CCNC(=O)C(SP(=S)(OC)OC)C(=O)NCC | 1000 mg/kg
CC(=O)c1ccc2c(c1)N(CCCN(C)C)c1ccccc1S2 | 400 mg/kg
CCCCSc1nc2ccccc2s1 | 1270 mg/kg
CCO[Si](CCl)(OCC)OCC | 2400 mg/kg
Cc1ccccc1-c1nnc(NN)s1 | 120 mg/kg
CCC(C)S (stereo not drawn) | 5180 mg/kg
O=C(O)C(F)(F)C(F)(F)C(F)(F)F | 2140 mg/kg
C1CCCC1 | 11400 mg/kg
CC(C)(C)[C@@H](O)[C@@H](Cc1ccc(Cl)cc1)n1cncn1 (single isomer, unassigned) | 1300 mg/kg
CCCCCCc1ccc(C(CBr)OCC(CC)CCCC)cc1 (stereo not drawn) | 250 mg/kg
CCCCc1c(OC(=O)c2ccc3c(c2)OCO3)n(-c2ccccc2)n(-c2ccccc2)c1=O | 1370 mg/kg
N#Cc1cc(Cl)c2nc(C(F)(F)F)[nH]c2c1 | 2.4 mg/kg
O=C1c2ccccc2C(=O)C1c1c(Cl)cccc1Cl | 470 mg/kg
CN(CCn1cnc2c1c(=O)n(C)c(=O)n2C)C1CCCCC1 | 2880 mg/kg
FC(F)(F)c1nc2c(Br)ccc(Br)c2[nH]1 | 18 mg/kg

SMILES | LD50
CCOP(=O)(OCC)SCc1ccccc1 | 660 mg/kg
CC(Oc1ccc(Oc2nc3ccc(Cl)cc3o2)cc1)C(=O)O (stereo not drawn) | 2360 mg/kg
Clc1ccc(CO/N=C(\Cn2ccnc2)c2ccc(Cl)cc2Cl)c(Cl)c1 | 2460 mg/kg
ON=CC=NO | 119 mg/kg
Cc1ccc2ccccc2n1 | 1230 mg/kg
CCCSP(=O)(OCC)Oc1ccccc1 (stereo not drawn) | 295 mg/kg
OC[C@@H](O)[C@@H](O[C@@H]1O[C@H](CO)[C@H](O)[C@H](O)[C@H]1O)[C@H](O)[C@@H](O)CO | 30000 mg/kg and 27500 mg/kg
COP(=O)(OC)OC(Cl)C(Cl)(Cl)Cl (stereo not drawn) | 14 mg/kg
CCCCCCCCCCOS(=O)(=O)O | 1950 mg/kg
Clc1ccc(COC(Cn2ccnc2)c2ccc(Cl)cc2Cl)c(Cl)c1 (stereo not drawn) | 920 mg/kg and 550 mg/kg
CCCCCCCCCCCCCCSC#N | 15000 mg/kg
N#CSc1ccc(C(=O)O)cc1 | 83 mg/kg
COc1ccc2c(c1)c(CC(=O)OCOC(=O)c1ccccc1)c(C)n2C(=O)c1ccc(Cl)cc1 | 73 mg/kg
Nc1c(I)cc(I)c(C(=O)N(CCC(=O)O)c2ccccc2)c1I | 2800 mg/kg
CC(C)(N)Cc1ccccc1Cl | 332 mg/kg
CCc1ccc(OCC=C(C)CCC=C(C)C)cn1 | 800 mg/kg
C=C(C)C(=O)OCCOCCOCCOC(=O)C(=C)C | 10800 mg/kg
COc1c(Cl)ccc(Cl)c1C(=O)O | 6760 mg/kg and 2630 mg/kg
NC1=NC(C(F)(F)F)(C(F)(F)F)NC1(C(F)(F)F)C(F)(F)F | 19 mg/kg
COC1CCC=CO1 (stereo not drawn) | 1410 mg/kg
COP(=S)(OC)SCn1nc(Cl)ccc1=O | 5 mg/kg
O=[N+]([O-])c1c(Cl)c(Cl)c(Cl)c2nc(C(F)(F)F)[nH]c12 | 19.3 mg/kg
Oc1cc(Cl)c(Cl)c(Cl)c1-c1c(Cl)c(Cl)c(Cl)c(Cl)c1OCl | 360 mg/kg
